Results as given in ChEMBL document CHEMBL1155618, “Junceellolides E-G, new briarane diterpenes from the West Pacific Ocean gorgonian Junceella fragilis” (J Nat Prod, 2000).
Activity calls are given as the source filed them.

Columns and labels:
Assay type in all cases: functional, cell-based
P388 = assay: Cytotoxicity against mouse P388 cells
A549 = assay: Cytotoxicity against human A549 cells
HT-29 = assay: Cytotoxicity against human HT29 cells

Measured: Activity

CCC(=O)O[C@@H]1CC/C(C)=C\[C@@H]2OC(=O)[C@H](C)[C@@]2(O)[C@H](OC(C)=O)[C@H]2[C@]3(CC[C@H](OC(C)=O)[C@]12C)CO3
inactive: all assays above

C=C1CC[C@H](OC(C)=O)[C@@]2(C)[C@H]1[C@@H](OC(C)=O)[C@@]1(O)[C@H](/C=C(/C)CC[C@H]2OC(=O)CC)OC(=O)[C@@H]1C
inactive: all assays above

CC(=O)O[C@@H]1[C@@H]2[C@@](C)([C@H](O)CC/C(C)=C\[C@@H]3OC(=O)[C@H](C)[C@]31O)[C@@H](O)CC[C@]2(C)O
inactive: all assays above

C=C1CC[C@H](OC(C)=O)[C@@]2(C)[C@H]1[C@@H](OC(C)=O)[C@@]1(O)[C@H](/C=C(/C)CC[C@H]2OC(C)=O)OC(=O)[C@@H]1C
inactive: all assays above
